# Source: patent publication US10357468B2, “Medicaments for slowing Parkinson's disease” (BIAL—PORTELA & CA, S.A., priority 2014, dated 2019)
# Experiments:
# PD patients = assay: 1-year open label extension of placebo-controlled double-blind trials of opicapone with levodopa and AADC inhibitor (Examples 1A, 1B); format: in vivo, human
# [1] = Tolerability in the Example 2 study; details: OPC 25, 50 and 75 mg QD for 11 days
smiles,measurement,setting,value
"Cc1c(Cl)c(C)[n+]([O-])c(Cl)c1-c1noc(-c2cc(O)c(O)c([N+](=O)[O-])c2)n1 [opicapone, 5-[3-(2,5-dichloro-4,6-dimethyl-1-oxy-pyridin-3-yl)-[1,2,4]oxadiazol-5-yl]-3-nitrobenzene-1,2-diol]",difference in OFF time,"PD patients; PD patients, at least 12 months post commencement of treatment with opicapone (with levodopa and AADCi), FIG. 1",approximately −2.0 hrs
same,difference in ON time without troublesome dyskinesia,"PD patients; PD patients, at least 12 months post commencement of treatment with opicapone (with levodopa and AADCi), FIG. 2",approximately +1.5 hr
same,progression of PD,"PD patients; patients treated with opicapone from an earlier stage compared with groups naïve to opicapone, once a day at bedtime",progressed less
same,tolerability profile,[1],favourable
